From patent publication US20230399313A1, “BIOLOGICAL ACTIVITIES OF 5-(2-(4-(4-FLUORO-2-METHYL-1H-INDOL-5-YLOXY)-6-METHOXYQUINOLIN-7-YLOXY)ETHYL)-5-AZASPIRO[2.4]-HEPTAN-7-OL CRYSTALLINE, PHOSPHORIC ACID SALT AND ITS ENANTIOMERS” (Advenchen Pharmaceuticals, LLC, priority 2022, published 2023) come the findings set out here.

Data set [1] in a line: Water solubility. Format: physicochemical.
For data set [2], the system named is Saos-2. In words: In vitro MTT (proliferation) assay. It is filed as cell-based. The settings on record: Homo sapiens, Saos-2 cell line, sarcoma. The protocol:
(§1) The inhibitions of Compound A-Xln, Compound A-P-Xln and two chiral isomers (Compound R-A, Compound S-A) to cancer cell lines are tested via in vitro MTT assay. Cancer cell lines are selected from PANC-1, NCI-H157, MDA-MB-231, Hela, PC-3, BEL7404, MKN45, Ishikawa, Saos-2, SKOV3, SW579 and HCT116 cell lines. The IC50 values are in the micromole scale.
(§2) In vitro MTT (proliferation) assay was performed with compound from above examples to give following inhibition results: […]

Data set [3] concerns Ishikawa. In words: In vitro MTT (proliferation) assay. It is filed as cell-based. The settings on record: Homo sapiens, Ishikawa cell line, endometrial. Here is the method: as §1, §2
In data set [4] the test system is BEL7404. The experiment in a line: In vitro MTT (proliferation) assay. Format: cell-based. The note with it: Homo sapiens, BEL-7404, BEL7404 cell line, ovary (so in the source). Here is the method: as §1, §2
Data set [5] relates to PANC-1. In words: In vitro MTT (proliferation) assay. Format: cell-based. The note with it: Homo sapiens, PANC-1 cell line, pancreas. The protocol: as §1, §2
Data set [6] relates to MDA-MB-231. In words: In vitro MTT (proliferation) assay. Format: cell-based. The settings on record: Homo sapiens; MDA-MB-231 cell line, breast; MTT; read-out: MDA-MB-231 IC50. Here is the method: as §1, §2
Data set [7] deals with SKOV3. The experiment in a line: In vitro MTT (proliferation) assay. Format: cell-based. The note with it: Homo sapiens, SK-OV-3; SKOV3 cell line, ovary; MTT; read-out: SKOV3 IC50. The protocol: as §1, §2
The subject of data set [8] is MKN45. The experiment in a line: In vitro MTT (proliferation) assay. It is filed as cell-based. The settings on record: Homo sapiens, MKN-45, MKN45 cell line, breast (so in the source). The protocol: as §1, §2
The subject of data set [9] is SW579. In words: In vitro MTT (proliferation) assay. It is filed as cell-based. The settings on record: SW579 cell line, thyroid. Here is the method: as §1, §2
Data set [10] has as its system HCT-116. In words: In vitro MTT (proliferation) assay. It is filed as cell-based. The note with it: Homo sapiens, HCT116 cell line, colon, MTT, read-out: HCT116 IC50. Here is the method: as §1, §2
In data set [11] the test system is Hela. The experiment in a line: In vitro MTT (proliferation) assay. Format: cell-based. The note with it: Homo sapiens; Hela cell line, ovary (so in the source); MTT; read-out: Hela IC50. Here is the method:
as §1, §2

For data set [12], the system named is NCI-H157. The experiment in a line: In vitro MTT (proliferation) assay. Format: cell-based. The settings on record: Homo sapiens, NCI-H157 cell line, lung. Here is the method:
as §1, §2

Data set [13] deals with PC-3. In words: In vitro MTT (proliferation) assay. Format: cell-based. The note with it: Homo sapiens, PC-3 cell line, prostate. Here is the method: as §1, §2
Data set [14] in a line: Stability of amorphous and crystalline form API at 60° C. (HPLC related substances). It is filed as physicochemical. The protocol: The samples of amorphous and crystalline form API of Compound A were placed in clean containers and the environmental temperature was controlled at 60° C. The purity of amorphous (Compound A-Amp) and crystalline form (Compound A-Xln) of Compound A were tested at Day 0, Day 10 and Day 30. Samples of amorphous and crystalline form APIs were measured, and the appropriate amount of diluent was added to dissolve with sonication. The concentration was controlled at 0.2 mg/ml and the purification was determined by HPLC with UV detector at 230 nm. Results were listed in the table as follows and the fitted curve is in Drawing Sections as FIG. 6.

The mark [15] stands for this setting: high temperature 60° C., 10 days.
Where [16] appears, read: high temperature 60° C., 30 days.

≈ marks a conversion by molar mass, not a printed value.

One may read the solubility as the dissolved amount per volume that the medium holds. In data set [1], `COc1cc2c(Oc3ccc4[nH]c(C)cc4c3F)ccnc2cc1OCCN1CC(O)C2(CC2)C1` (stereo not shown) [Compound A-P, 5-(2-(4-(4-fluoro-2-methyl-1H-indol-5-yloxy)-6-methoxyquinolin-7-yloxy)ethyl)-5-azaspiro[2.4]-heptan-7-ol] had a solubility of 360 µg/mL (≈ 754 µM).

For orientation: IC50 means the concentration at which inhibition is half-maximal. Regarding `COc1cc2c(Oc3ccc4[nH]c(C)cc4c3F)ccnc2cc1OCCN1C[C@@H](O)C2(CC2)C1` [Compound S-A], the IC50 worked out at 5350 nM in [2]; 4980 nM in data set [3]; 2380 nM in [4]; 5000 nM in [5]; 6600 nM in [6]; 7650 nM in data set [7]. The IC50 is 320 nM in [8]; 836 nM in data set [9]; 980 nM in data set [10]; 6300 nM in [11]; 7000 nM in [12]; 5600 nM in data set [13].

Regarding `COc1cc2c(Oc3ccc4[nH]c(C)cc4c3F)ccnc2cc1OCCN1CC(O)C2(CC2)C1` (stereo not shown) [Compound A-Amp, 5-(2-(4-(4-fluoro-2-methyl-1H-indol-5-yloxy)-6-methoxyquinolin-7-yloxy)ethyl)-5-azaspiro[2.4]-heptan-7-ol], the “Maximum impurities (%)” value in data set [14] (0 day) worked out at 0.075%; in data set [14] (setting [15]) it was 0.191%; in data set [14] (setting [16]) it was 0.327%. Also, the “Total impurities (%)” value turned out to be 0.26% in [14] (0 day), 0.323% in [14] (setting [15]) and 0.583% in data set [14] (setting [16]).

Consider `COc1cc2c(Oc3ccc4[nH]c(C)cc4c3F)ccnc2cc1OCCN1CC(O)C2(CC2)C1` (stereo not shown) [Compound A-P-Xln, 5-(2-(4-(4-fluoro-2-methyl-1H-indol-5-yloxy)-6-methoxyquinolin-7-yloxy)ethyl)-5-azaspiro[2.4]-heptan-7-ol], for which the IC50 is 2480 nM in data set [2]; 1480 nM in data set [3]; 1750 nM in data set [4]; 2750 nM in data set [5]; 3930 nM in data set [6]; 3090 nM in [7]. In addition, the IC50 in data set [8] stood at 130 nM; in data set [9] it was 880 nM; in [10], 934 nM; in data set [11], 2360 nM; in data set [12] it was 1610 nM; in data set [13], 1770 nM.

As for `COc1cc2c(Oc3ccc4[nH]c(C)cc4c3F)ccnc2cc1OCCN1C[C@H](O)C2(CC2)C1` [Compound R-A], the IC50 is 3080 nM in [2]; 4610 nM in data set [3]; 4060 nM in [4]; 5640 nM in data set [5]; 9600 nM in data set [6]; 3710 nM in data set [7]. The IC50 came out at 430 nM in [8]; 906 nM in data set [9]; 883 nM in data set [10]; 6690 nM in data set [11]; 8110 nM in data set [12]; 2750 nM in [13].
